The values that follow come from PMC10938434, “Design, Synthesis, and Biological Effect Studies of Novel Benzofuran–Thiazolylhydrazone Derivatives as Monoamine Oxidase Inhibitors” (ACS Omega, 2024).

The target of one assay is T1, MAO-B enzyme (Homo sapiens, UniProt P27338).
T1 sequence (P27338 1-520): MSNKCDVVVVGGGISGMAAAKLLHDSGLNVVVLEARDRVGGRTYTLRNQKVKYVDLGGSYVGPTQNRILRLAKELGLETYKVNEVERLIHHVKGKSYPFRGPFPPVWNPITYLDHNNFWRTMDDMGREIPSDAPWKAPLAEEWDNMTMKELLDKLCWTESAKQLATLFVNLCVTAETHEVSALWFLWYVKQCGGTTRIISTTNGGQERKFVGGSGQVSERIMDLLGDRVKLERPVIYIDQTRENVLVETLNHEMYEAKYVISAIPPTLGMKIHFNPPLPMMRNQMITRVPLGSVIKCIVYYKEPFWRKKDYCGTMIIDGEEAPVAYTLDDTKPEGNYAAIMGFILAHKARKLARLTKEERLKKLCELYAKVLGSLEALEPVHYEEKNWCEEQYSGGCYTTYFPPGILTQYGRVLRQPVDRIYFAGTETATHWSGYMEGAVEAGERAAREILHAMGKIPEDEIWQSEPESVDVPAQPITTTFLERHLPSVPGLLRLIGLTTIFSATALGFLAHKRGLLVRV
Nature of the assay: MAO-B enzyme inhibition, fluorometric method. It counts as biochemical. The conditions noted are these: for inhibition at 1000 µM: 10^–3 M; for inhibition at 100 µM: read-out: MAO-B % inhibition 10^–4 M, 10^–4 M. The text has this:
(§1) Inhibition profiles of the synthesized compounds on MAO enzymes were investigated by the fluorometric method.
In every step of the method, distilled water obtained from a Millipor, a Milli-Q Synthesis A10 purification device, was used. Care was taken in preparing all of the solutions used fresh and to consume them within 1 week after preparation. A BioTek-Precision Power robotic pipetting system was used in the processes of separating the solutions prepared in the enzyme inhibition study, applying the test compounds to 96-well plates, and adding the enzyme–substrate solutions. The creation, monitoring, and spectrophotometric measurements of the enzyme protocol were performed on a BioTek-Synergy H1 microplate reader.[41],[42]

The target of the next assay is T2, MAO-A enzyme (Homo sapiens, UniProt P21397).
T2 sequence (P21397 1-527): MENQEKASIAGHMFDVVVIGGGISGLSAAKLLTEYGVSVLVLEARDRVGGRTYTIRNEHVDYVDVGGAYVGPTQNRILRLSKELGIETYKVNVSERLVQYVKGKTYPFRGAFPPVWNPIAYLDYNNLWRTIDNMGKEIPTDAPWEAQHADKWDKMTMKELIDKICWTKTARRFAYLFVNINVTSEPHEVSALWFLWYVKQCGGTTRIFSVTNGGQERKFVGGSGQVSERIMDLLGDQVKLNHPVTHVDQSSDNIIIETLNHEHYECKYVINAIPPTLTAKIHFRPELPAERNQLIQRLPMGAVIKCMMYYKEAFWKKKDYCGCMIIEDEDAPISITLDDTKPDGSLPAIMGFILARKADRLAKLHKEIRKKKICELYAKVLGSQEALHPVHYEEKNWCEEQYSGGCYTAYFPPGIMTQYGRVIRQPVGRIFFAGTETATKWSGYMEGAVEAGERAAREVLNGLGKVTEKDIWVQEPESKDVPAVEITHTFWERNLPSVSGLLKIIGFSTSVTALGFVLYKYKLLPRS
Nature of the assay: MAO-A enzyme inhibition, fluorometric method. The conditions noted are these: for IC50: 10^–3–10^–9 M concentrations; for selectivity: MAO isoform preferentially inhibited; for SI* selectivity index: SI = IC50MAO-B/IC50 MAO-A; for inhibition at 1000 µM: read-out: MAO-A % inhibition 10^–3 M; for inhibition at 100 µM: read-out: MAO-A % inhibition 10^–4 M. It counts as biochemical.
Text: as §1
In every step of the method, distilled water obtained from a Millipor, a Milli-Q Synthesis A10 purification device, was used. Care was taken in preparing all of the solutions used fresh and to consume them within 1 week after preparation. A BioTek-Precision Power robotic pipetting system was used in the processes of separating the solutions prepared in the enzyme inhibition study, applying the test compounds to 96-well plates, and adding the enzyme–substrate solutions.

Structures are written as SMILES.

On to `Fc1ccc(-c2csc(NN=Cc3cc4ccccc4o3)n2)cc1` [2f, 2-(2-(Benzofuran-2-ylmethylene)hydrazinyl)-4-(4-fluorophenyl)thiazole], for which, at MAO-B enzyme, the IC50 is 1370 ± 60 nM, the inhibition at 1000 µM was 82.7 ± 1.66% and the inhibition at 100 µM was > 50%. On MAO-A enzyme, it took 340 ± 10 nM to reach half-maximal inhibition (IC50), the selectivity result was “MAO-A”, the “SI* selectivity index” value is on record as >4.06 and the inhibition at 1000 µM came to 85.7 ± 1.48%. The inhibition at 100 µM at MAO-A enzyme came out at 73.6 ± 1.16%.
Take `O=[N+]([O-])c1ccc(-c2csc(NN=Cc3cc4ccccc4o3)n2)cc1` [2e, 2-(2-(Benzofuran-2-ylmethylene)hydrazinyl)-4-(4-nitrophenyl)thiazole]: at MAO-B enzyme, the concentration for half-maximal inhibition (IC50) is > 100000 nM, the inhibition at 1000 µM worked out at 72.1 ± 1.4% and the inhibition at 100 µM is 48.3 ± 0.86%. Also, at MAO-A enzyme, it took 260 ± 10 nM to reach half-maximal inhibition (IC50), the selectivity entry is on record as “MAO-A”, the “SI* selectivity index” value was >386.10 and the inhibition at 1000 µM is 83.2 ± 1.65%. On MAO-A enzyme, the inhibition at 100 µM was 69.3 ± 0.9%.
Take `Brc1ccc(-c2csc(NN=Cc3cc4ccccc4o3)n2)cc1` [2h, 2-(2-(Benzofuran-2-ylmethylene)hydrazinyl)-4-(4-bromophenyl)thiazole]: on MAO-B enzyme, the IC50 is 1060 ± 50 nM, the inhibition at 1000 µM came to 70.2 ± 1.36% and the inhibition at 100 µM was > 50%. On MAO-A enzyme, the 50% inhibitory concentration (IC50) came out at 420 ± 20 nM, the selectivity result is listed as “MAO-A”, the “SI* selectivity index” value was >2.53 and the inhibition at 1000 µM was 86.8 ± 1.6%. For the same compound, the inhibition at 100 µM at MAO-A enzyme was found to be 78.5 ± 1.09%.
For the compound `Fc1ccc(-c2csc(NN=Cc3cc4ccccc4o3)n2)c(F)c1` [2k, 2-(2-(Benzofuran-2-ylmethylene)hydrazinyl)-4-(2,4-difluorophenyl)thiazole], at MAO-B enzyme, the IC50 was > 100000 nM, the inhibition at 1000 µM was found to be 74.5 ± 1.4% and the inhibition at 100 µM stood at 40.7 ± 0.95%. For the same compound, on MAO-A enzyme, it took 130 ± 10 nM to reach half-maximal inhibition (IC50), the selectivity result is on record as “MAO-A”, the “SI* selectivity index” value is reported as >787.40 and the inhibition at 1000 µM is 89.9 ± 1.76%. Further, at MAO-A enzyme, the inhibition at 100 µM worked out at 73.7 ± 0.83%.
Turning to `Cc1ccc(-c2csc(NN=Cc3cc4ccccc4o3)n2)c(C)c1` [2i, 2-(2-(Benzofuran-2-ylmethylene)hydrazinyl)-4-(2,4-dimethylphenyl)thiazole], on MAO-B enzyme, the IC50 came to 1690 ± 80 nM, the inhibition at 1000 µM was determined as 73.5 ± 1.49% and the inhibition at 100 µM is > 50%. At MAO-A enzyme, the concentration for half-maximal inhibition (IC50) came out at 430 ± 20 nM, the selectivity result is listed as “MAO-A”, the “SI* selectivity index” value is >3.93 and the inhibition at 1000 µM stood at 84.2 ± 1.35%. In addition, the inhibition at 100 µM on MAO-A enzyme was found to be 71.3 ± 1.86%.
For `COc1ccc(-c2csc(NN=Cc3cc4ccccc4o3)n2)c(OC)c1` [2j, 2-(2-(Benzofuran-2-ylmethylene)hydrazinyl)-4-(2,4-dimethoxyphenyl)thiazole], on MAO-B enzyme, the IC50 was > 100000 nM, the inhibition at 1000 µM worked out at 67.9 ± 1.3% and the inhibition at 100 µM came to 41.5 ± 0.75%. Moreover, on MAO-A enzyme, inhibition was half-maximal at 140 ± 10 nM (IC50), the selectivity result is listed as “MAO-A”, the “SI* selectivity index” value is listed as >719.42 and the inhibition at 1000 µM came out at 87.5 ± 1.8%. For the same compound, at MAO-A enzyme, the inhibition at 100 µM came to 68.4 ± 1.15%.
As for `COc1ccc(-c2csc(NN=Cc3cc4ccccc4o3)n2)cc1` [2c, 2-(2-(Benzofuran-2-ylmethylene)hydrazinyl)-4-(4-methoxyphenyl)thiazole], on MAO-B enzyme, the IC50 was > 100000 nM, the inhibition at 1000 µM came to 55.8 ± 0.96% and the inhibition at 100 µM was 42.8 ± 0.89%. On MAO-A enzyme, 180 ± 10 nM corresponded to half-maximal inhibition (IC50), the selectivity entry is “MAO-A”, the “SI* selectivity index” value is listed as >568.18 and the inhibition at 1000 µM is 85.2 ± 2.03%. Besides, the inhibition at 100 µM at MAO-A enzyme is 72.8 ± 1.36%.
With `O=C(NCCN1CCOCC1)c1ccc(Cl)cc1` [Moclobemid, moclobemide, reference compound], at MAO-A enzyme, the inhibition at 1000 µM was 94.1 ± 2.76% and the inhibition at 100 µM worked out at 82.1 ± 2.69%.

One may read the IC50 as the concentration that gives 50% inhibition. For orientation: inhibition means the percentage by which the read-out fell short of the control.
